Data taken from patent publication US20070088043A1, “Novel HDAC inhibitors” (ORCHID RESEARCH LABORATORIES LIMITED., priority 2005, published 2007).
pIC50: −log10 of the molar value.

Legend:
[1] = system: NCIH460, HCT116, MDAMB231/U251; assay: Anti-cancer screen, mean GI50 over the cell lines; assay type: cell-based; settings: in µM
Procedure, shortened: (§1)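 HCT116, NCIH460 and U251 cells (5000/well, DMEM + 10% FBS) seeded 24 h, then treated 48 h in triplicate at 0.01, 0.1, 1, 10, 100 μM; time-zero plate kept. MTT 3 h, formazan in DMSO read at 570 nm; GI50, TGI, LC50 derived.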

HCT 116 cells = assay: Anti-cancer screen (MTT), HCT116; assay type: cell-based; settings: Homo sapiens, HCT-116, HCT116 cells, 48 hours, MTT; for GI50: concentration to decrease % growth by 50%; for IC100: concentration to decrease % growth by 100%, read-out: HCT116 TGI; for LC50: concentration to decrease % growth by 150%
Procedure, shortened: as §1

MDAMB231/U251 = assay: Anti-cancer screen (MTT), MDAMB231/U251; assay type: cell-based; settings: MDAMB231/U251 cells, 48 hours; for GI50: concentration to decrease % growth by 50%; for IC100: concentration to decrease % growth by 100%, read-out: MDAMB231/U251 TGI; for LC50: concentration to decrease % growth by 150%
Procedure, shortened: as §1

NCIH 460 cells = assay: Anti-cancer screen (MTT), NCIH460; assay type: cell-based; settings: Homo sapiens, NCI-H460, NCIH460 cells, 48 hours, MTT; for GI50: concentration to decrease % growth by 50%; for IC100: concentration to decrease % growth by 100%, read-out: NCIH460 TGI; for LC50: concentration to decrease % growth by 150%
Procedure, shortened: as §1

[2] = system: HDAC (Mouse Liver Extract); assay: Histone Deacetylase (HDAC) Inhibition Assay using Boc-Lys (Ac)-AMC Substrate; assay type: biochemical; settings: mouse liver enzyme, NA = No Activity; for HDAC Inhibition 1 μM / HDAC Inhibition 10 μM: in % (unit assumed)
Procedure, shortened: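 Mouse liver extract was the HDAC source. It was preincubated with inhibitor for 5 min at 30° C, then incubated with Boc-Lys(Ac)-AMC substrate for 30 min at 30° C. Trypsin stop solution was added for a 20–30 min development step, and released AMC was read by fluorescence (ex 360/365, em 440/460 nm) with blank subtraction.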

Question: `CC(=O)SCCCCC(=O)N1CCN(CC(=O)Nc2ccccc2)CC1` [Example 16, 2-[4-(5-Thioacetylpentanoyl)piperazin-1-yl]-N-(phenyl-2-yl)acetamide] was tested. Which “Mean GI50” value [1] did it give?
Answer: The value was 29.67.

Question: What about the GI50 (HCT 116 cells) of the same compound?
Answer: The GI50 was 58 µM.

Question: And the IC100 (HCT 116 cells)?
Answer: The IC100 was greater than 100 µM.

Question: What about the LC50 (HCT 116 cells) of the same compound?
Answer: The LC50 was greater than 100 µM.

Question: What about the GI50 (MDAMB231/U251) of the same compound?
Answer: Its GI50 is 1 µM.

Question: What about the IC100 (MDAMB231/U251) of the same compound?
Answer: The IC100 was greater than 100 µM.

Question: And the LC50 (MDAMB231/U251)?
Answer: The LC50 was greater than 100 µM.

Question: What about the GI50 (NCIH 460 cells) of the same compound?
Answer: The GI50 was 30 µM.

Question: What about the IC100 (NCIH 460 cells) of the same compound?
Answer: Its IC100 is 52 µM.

Question: And the LC50 (NCIH 460 cells)?
Answer: Its LC50 is greater than 100 µM.

Question: And the “HDAC Inhibition 1 μM” value [2]?
Answer: Its value is 29.26.

Question: What about the “HDAC Inhibition 10 μM” value [2] of the same compound?
Answer: Its value is 68.52.

Question: What does the source list for `CC(=O)SCCCCC(=O)N1CCN(CC(=O)Nc2nc3c(C)cccc3s2)CC1` [Example 13, 2-[4-(5-Thioacetylpentanoyl)piperazin-1-yl]-N-(4-methyl-1,3-benzothiazol-2-yl)acetamide]?
Answer: Mean GI50 [1]: >100; GI50 (HCT 116 cells): 6 µM; IC100 (HCT 116 cells): > 100 µM; LC50 (HCT 116 cells): > 100 µM; GI50 (MDAMB231/U251): 6 µM; IC100 (MDAMB231/U251): 30 µM; LC50 (MDAMB231/U251): > 100 µM; GI50 (NCIH 460 cells): > 100 µM; IC100 (NCIH 460 cells): > 100 µM; LC50 (NCIH 460 cells): > 100 µM; HDAC Inhibition 1 μM [2]: 26.73; HDAC Inhibition 10 μM [2]: 55.56

Question: Which results are given for `CC(=O)NCCCCCC(=O)N1CCN(CC(=O)Nc2nc3ccccc3s2)CC1` [Example 43]?
Answer: Mean GI50 [1]: >100; GI50 (HCT 116 cells): 90 µM; IC100 (HCT 116 cells): > 100 µM; LC50 (HCT 116 cells): > 100 µM; GI50 (MDAMB231/U251): > 100 µM; IC100 (MDAMB231/U251): > 100 µM; LC50 (MDAMB231/U251): > 100 µM; GI50 (NCIH 460 cells): > 100 µM; IC100 (NCIH 460 cells): > 100 µM; LC50 (NCIH 460 cells): > 100 µM; HDAC Inhibition 1 μM [2]: 2.61; HDAC Inhibition 10 μM [2]: 5.24

Question: Which results are given for `CC(=O)SCCCCC(=O)N1CCN(CC(=O)Nc2nc3ccc(C)cc3s2)CC1` [Example 11, 2-[4-(5-Thioacetylpentanoyl)piperazin-1-yl]-N-(6-methyl-1,3-benzothiazol-2-yl)acetamide]?
Answer: Mean GI50 [1]: 2.10; GI50 (HCT 116 cells): 5 µM; IC100 (HCT 116 cells): 40 µM; LC50 (HCT 116 cells): > 100 µM; GI50 (MDAMB231/U251): 1 µM; IC100 (MDAMB231/U251): 8 µM; LC50 (MDAMB231/U251): > 100 µM; GI50 (NCIH 460 cells): 0.3 µM; IC100 (NCIH 460 cells): 0.9 µM; LC50 (NCIH 460 cells): 8 µM; HDAC Inhibition 1 μM [2]: 31.75; HDAC Inhibition 10 μM [2]: 65.63; pIC50 [2]: 5.19

Question: With `CC(=O)SCCCCCC(=O)N1CCN(CC(=O)Nc2nc(C)cs2)CC1` [Example 17, 2-[4-(6-Thioacetylhexanoyl)piperazin-1-yl]-N-(4-methyl-1,3-thiazol-2-yl)acetamide] as the compound, how does the “Mean GI50” value [1] read?
Answer: Its value is 33.50.

Question: And the GI50 (HCT 116 cells)?
Answer: Its GI50 is 26 µM.

Question: What about the IC100 (HCT 116 cells) of the same compound?
Answer: Its IC100 is greater than 100 µM.

Question: And the LC50 (HCT 116 cells)?
Answer: The LC50 was greater than 100 µM.

Question: What about the GI50 (MDAMB231/U251) of the same compound?
Answer: Its GI50 is 67 µM.

Question: What about the IC100 (MDAMB231/U251) of the same compound?
Answer: Its IC100 is greater than 100 µM.

Question: And the LC50 (MDAMB231/U251)?
Answer: Its LC50 is greater than 100 µM.

Question: And the GI50 (NCIH 460 cells)?
Answer: The GI50 was 7.5 µM.

Question: And the IC100 (NCIH 460 cells)?
Answer: The IC100 was greater than 100 µM.

Question: And the LC50 (NCIH 460 cells)?
Answer: The LC50 was greater than 100 µM.

Question: And the “HDAC Inhibition 1 μM” value [2]?
Answer: The value was 68.04.

Question: What about the “HDAC Inhibition 10 μM” value [2] of the same compound?
Answer: Its value is 96.19.

Question: For `COc1cccc2sc(NC(=O)CN3CCN(C(=O)CCCCCSC(C)=O)CC3)nc12` [Example 21, 2-[4-(6-Thioacetylhexanoyl)piperazin-1-yl]-N-(4-methoxy-1,3-benzothiazol-2-yl)acetamide], which “Mean GI50” value [1] is on record?
Answer: Its value is 61.

Question: What about the GI50 (HCT 116 cells) of the same compound?
Answer: Its GI50 is 52 µM.

Question: What about the IC100 (HCT 116 cells) of the same compound?
Answer: Its IC100 is greater than 100 µM.

Question: What about the LC50 (HCT 116 cells) of the same compound?
Answer: The LC50 was greater than 100 µM.

Question: And the GI50 (MDAMB231/U251)?
Answer: The GI50 was 38 µM.

Question: And the IC100 (MDAMB231/U251)?
Answer: Its IC100 is greater than 100 µM.

Question: What about the LC50 (MDAMB231/U251) of the same compound?
Answer: The LC50 was greater than 100 µM.

Question: And the GI50 (NCIH 460 cells)?
Answer: Its GI50 is 93 µM.

Question: And the IC100 (NCIH 460 cells)?
Answer: Its IC100 is greater than 100 µM.

Question: What about the LC50 (NCIH 460 cells) of the same compound?
Answer: The LC50 was greater than 100 µM.

Question: What about the “HDAC Inhibition 1 μM” value [2] of the same compound?
Answer: Its value is 82.9.

Question: And the “HDAC Inhibition 10 μM” value [2]?
Answer: The value was 96.2.

Question: And the pIC50 [2]?
Answer: The pIC50 was 6.24.
